Assay results from EP3318253B1, “COMPOSITIONS COMPRISING WNT INHIBITORS FOR TREATING CANCER” (Schmidt-Wolf, Ingo, priority 2010, dated 2012).
Read-outs that look alike come from different tables or passages of the source.

Tests used:
Wnt/beta catenin = conditions: Gen-plus drug library, 960 compounds; cited from earlier work
primary CLL cells = conditions: earlier work of the group; cited from earlier work
MPC11 myeloma cells = conditions: 750 µg lenalidomide/day
Procedure: All animal experiments were done at least in duplicate with groups of 6 BALB/c mice (Charles River, Sulzfeld, Germany). 5x10^5 MCP11 murine myeloma cells were injected per mouse subcutaneously into Balb/c mice. […] Overall survival and tumor growth were measured. Tumor volume was calculated as follows: volume = length x width^2 x 0,52. Animals were killed when tumor volume reached 2000 mm^3.
• Figure 1. […] 1x10^5 cells were cultured with different compounds for three days. The concentration of thalidomide was U266 160µM for U266, RPMI 20µM for RPMI, and OPM 40µM for OPM cells. Then cell viability was measured by DIOC6 staining in flow cytometry. Results represent data from three, two and five separate experiments, respectively. Separate U266 n=3, RPMI n=2, OPM n=5 experiments. Data are shown as mean ± SD. • Figure 2. […] 1x10^5 OPM cells were cultured with the different compounds for three days. The concentration of lenalidomide was 12µM for OPM and 80µM for RPMI cells. Then cell viability was measured by DIOC6 staining in flow cytometry. Results represent data from eight and five OPM n=8, RPMI n=5 separate experiments, respectively. Data are shown as mean ± SD. • Figure 3. […] (A) Flow cytometric results. […] Western Blot analysis for the detection of β-catenin in myeloma cell lines under normal conditions. The myeloma cell lines RPMI 8226, KMS-18 and U266 were analyzed according to their β-catenin expression. • Figure 4B. […] As primary antibodies purified mouse anti-β-catenin and β-actin were used at a dilution of 1:1000 and as secondary antibody served goat anti-mouse IgG-HRP at a dilution of 1:5000. Finally, ECL reagent was utilized for detection. • Figure 4C. […] As primary antibodies Purified mouse anti-β-catenin and β-actin were used at a dilution of 1:1000 and as secondary antibody served goat anti-mouse IgG-HRP at a dilution of 1:5000. Finally, ECL reagent was utilized for detection. • Figure 5. […] Results represent data from two separate experiments. Data are shown as mean. • Figure 6. […] BALB/c mice were injected with 5x10^5 MPC11 myeloma cells subcutaneously. (A) Tumor growth and (B) overall survival were measured. Six animals were assayed per group.
All animal experiments were done at least in duplicate with groups of 6 BALB/c mice (Charles River, Sulzfeld, Germany). 5x10^5 MCP11 murine myeloma cells were injected per mouse subcutaneously into Balb/c mice. Mice were treated orally with 450µg/day CIC and 750 µg lenalidomide/day, respectively. Overall survival and tumor growth were measured. Tumor volume was calculated as follows: volume = length x width^2 x 0,52. Animals were killed when tumor volume reached 2000 mm^3.
• Figure 7. […] 1x10^5 cells were cultured with different compounds for three days. The concentration of thalidomide was U266 160µM for U266, RPMI 20µM for RPMI, and OPM 40µM for OPM cells. Then cell viability was measured by DIOC6 staining in flow cytometry. Results represent data from three, two and five separate experiments, respectively. Separate U266 n=3, RPMI n=2, OPM n=5 experiments. Data are shown as mean ± SD. • Figure 8. […] 1x10^5 OPM cells were cultured with the different compounds for three days. The concentration of lenalidomide was 12µM for OPM and 80µM for RPMI cells. Then cell viability was measured by DIOC6 staining in flow cytometry. Results represent data from eight and five OPM n=8, RPMI n=5 separate experiments, respectively. Data are shown as mean ± SD. • Figure 9. […] (A) Flow cytometric results. (B) We analyzed the effect of CIC on the Wnt/beta catenin pathway by Western blot. • Figure 10A. Western Blot analysis for the detection of β-catenin in myeloma cell lines under normal conditions. The myeloma cell lines RPMI 8226, KMS-18 and U266 were analyzed according to their β-catenin expression. • Figure 10B.

[1] = test system: lymphoma and myeloma cell lines; experiment: Titration of the optimal concentration; assay type: cell-based, human; conditions: without significantly deteriorating viability of normal PBMCs, data not shown
Text: (§1) As a first step, we determined the optimal concentration of EA in various lymphoma and myeloma cell lines. Subsequently, we determined the optimal concentration of EA in PBMCs derived from healthy individuals in order to check for toxicity. […] The effect of DMSO as a toxic solvent was only observed in the myeloma cell line OPM-2 (Figure 1C). As a control, peripheral blood mononuclear cells (PBMCs) were investigated by FACS analysis. A toxic effect affecting the cells induced a shift from viable, DiOC6-positive cells to apoptotic, DiOC6-negative cells.
(§2) Experiments were performed as reported recently.
as §1, with “CIC” for “EA”, “(Fig. 7C).” for “(Figure 1C).”

β-catenin = experiment: Western blot, β-catenin expression in KMS-18 cells; assay type: cell-based, human; conditions: KMS-18 cells treated for 24h
Procedure: Western blot was performed as described recently^16.
• Figure 1. […] Data are shown as mean ± SD. • Figure 2. […] Data are shown as mean ± SD. • Figure 3. […] (A) Flow cytometric results. […] Finally, ECL reagent was utilized for detection. • Figure 4C. […] Finally, ECL reagent was utilized for detection. • Figure 5. Effect of EA on viability of myeloma primary cells. […] Results represent data from two separate experiments. Data are shown as mean. • Figure 6. […] (A) Tumor growth and (B) overall survival were measured. Six animals were assayed per group.
Western blot was performed as described recently.
• Figure 7. […] Data are shown as mean ± SD. • Figure 8. […] Data are shown as mean ± SD. • Figure 9. Effect of CIC on the Wnt/beta catenin pathway. (A) Flow cytometric results. […] Finally, ECL reagent was utilized for detection. • Figure 10C. […] Finally, ECL reagent was utilized for detection. • Figure 11. […] (A) Tumor growth and (B) overall survival were measured. Six animals were assayed per group. HD CIC.

lymphoma cell lines = experiment: Cell viability by DiOC6 staining in lymphoma cell lines; assay type: cell-based, human; conditions: result in words
Procedure: as §2
PBL derived from healthy individuals were used as controls. […] ND, not done.

SMILES | identified in TOPflash reporter screen (Wnt/beta catenin) | cell death in primary CLL cells (primary CLL cells) | Tumor growth (MPC11 myeloma cells; oral 450µg/day EA, compared to mice treated with lenalidomide alone, p<0.001) | most effective concentration to initialize cell death [1] | β-catenin expression (β-catenin) | viability of lymphoma cell lines in vitro (lymphoma cell lines) | Tumor growth (MPC11 myeloma cells; oral 450µg/day CIC, compared to control mice)
C=C(CC)C(=O)c1ccc(OCC(=O)O)c(Cl)c1Cl [EA, 2-[2,3-dichloro-4-(2-methylidenebutanoyl)phenoxy] acetic acid] | Wnt/beta catenin inhibitors | selectively induced cell death | significantly reduced | 30 µM | increased | significantly (p<0.05) decreased | 
Cc1cc(C2CCCCC2)n(O)c(=O)c1 [CIC, ciclopirox olamine] | Wnt/beta catenin inhibitors | selectively induced cell death |  | 30 µM | decreased | significantly (p<0.05) decreased | significantly reduced
